Test results reported in patent US20140030808A1, “Method for Cellular RNA Expression” (BIONTECH AG, priority 2010, published 2014).

Key:
CCD1079SK fibroblasts = test: Intracellular abundance and half-life of IVT-RNA constructs (qRT-PCR); format: cell-based, human
Experimental: (A) CCD1079SK fibroblasts were either mock electroporated or electroporated with IVT RNA encoding for firefly luciferase (1 μg), eGFP (1.25 μg), SV40 Large T (1.25 μg), HPV16-E6 (1.25 μg), OCT4, SOX2, KLF4, cMYC, NANOG and LIN28 (2.5 μg OCT4 and equimolar amounts for the others). Electroporations were performed in 2 mm gap cuvettes using optimized parameters for CCDs. After electroporation cells were either left untreated or incubated with 2 μM C13H8N4OS for 24 h or 48 h. After 72 h cells were harvested to extract total RNA and perform qRT-PCR analysis for the codon optimized IVT-RNA constructs OCT4 and SOX2. […] Decay of transcripts was plotted against time and difference between half-lifes (t1/2) of the construct in absence or presence of C13H8N4OS was calculated (Δt1/2=t1/2 (+C13H8N4OS)−t1/2 (−C13H8N4OS)). […]
Total cellular RNA was extracted from cells with RNeasy Mini Kit or RNeasy Micro Kit (Qiagen, Hilden, Germany), reverse transcribed with oligo-dT18 using Superscript II (Invitrogen, Carlsbad, Calif., USA), and subjected to real-time quantitative analysis on ABI PRISM 7700 Sequence Detection System instrument and software (Applied Biosystems, Foster City, Calif., USA) using the QuantiTect SYBR Green PCR Kit (Qiagen). […]

[1] = test system: Primary human foreskin fibroblasts (BJ, CCD1079Sk); test: Intracellular FACS staining of reprogramming transcription factors after IVT RNA transfer; format: cell-based
Experimental: (AB) Primary human foreskin fibroblasts from different donors and suppliers (panel A: BJ fibroblasts; panel B: CCD1079Sk) and (C) MEFs were electroporated with 0.5 μg IVT RNA encoding for firefly luciferase and 1.25 μg IVT RNA encoding for eGFP and 2.5 μg of IVT RNA encoding for each of the individual reprogramming factors OCT4, SOX2, KLF4 and c-MYC. Electroporations were performed in 2 mm gap cuvettes using optimized parameters for each cell type. The cells were plated into 6-well-plates at a density of 250000 cells/well. The cells were either left untreated or incubated with increasing amounts of C13H8N4OS (PKR-inhibitor) ranging from 0.5 μM to 2 μM as indicated in the panel legend. The OCT4 expression was detected by intracellular staining with a fluorescently labeled antibody and measured by flow cytometry at the indicated time points. The mean fluorescence intensity (MFI) of the transfected OCT4-positive cell fractions is shown. (D) CCD1079Sk fibroblasts were electroporated with IVT RNA as in B and treated for 24 h or 48 h with 2 μM C13H8N4OS. 72 h post electroporation the cells were harvested and intracellular staining with fluorescent labeled antibodies reactive against the indicated transcription factors were performed. The MFI of the transcription factor-positive cell fractions are shown.
Intracellular FACS staining of OCT4, SOX2 and NANOG was done using the human pluripotent stem cell transcription factor analysis kit following the manufacturer's instructions (BD Bioscience). Briefly, 3-5×10^5 cells were harvested, washed twice with PBS and fixed for 20 min in 250 μl BD Cytofix Buffer (BD Biosciences) at room temperature. After the incubation cells were washed twice with PBS and permeabilized by washing twice with 1× Perm/Wash Buffer (BD Bioscience) followed by 10 minutes incubation in 50 μl 1× Perm/Wash at room temperature. […] Cells were resuspended in PBS supplemented with 2% formaldehyde and analyzed by flow cytometry as described above. […]

[2] = test system: Primary human foreskin fibroblasts (HFF); format: cell-based; conditions: 24 h supernatants
[3] = test system: Human primary CD4 and CD8 positive T-cells; format: cell-based; conditions: 0.5 μM to 2 μM
[4] = 2 μM for 24 h or 48 h, 72 h post electroporation

O=C1Nc2ccc3ncsc3c2/C1=C/c1c[nH]cn1 [C13H8N4OS, 6,8-dihydro-8-(1H-imidazol-5-ylmethylene)-7H-pyrrolo[2,3-g]benzothiazol-7-one]
abundance of IVT RNA (OCT4, SOX2 constructs) (CCD1079SK fibroblasts; 2 μM for 24 h or 48 h, harvested after 72 h): increased the abundance of IVT RNA for 72 h
prolongation of half life of IVT RNA constructs OCT4, SOX2, KLF4 and cMYC (Δt1/2) (CCD1079SK fibroblasts; 2 μM for 80 h, presence vs absence of C13H8N4OS): 1 to 2.5 h
OCT4 expression (MFI) ([1]; 0.5 μM to 2 μM permanently or 2 μM for 24 h or 48 h): strongly increased and stabilized
Nanog expression (MFI) [1, 4]: strongly increased and stabilized
SOX2 expression (MFI) [1, 4]: strongly increased and stabilized
secretion of IFNβ ([2]; 2 μM C13H8N4OS, HFF electroporated with eGFP IVT RNA): remarkably enhanced
secretion of IFNα ([2]; HFF, with or without 2 μM C13H8N4OS): not observed
GFP expression (MFI) [3]: Neither in T-cells nor in iDCs PKR inhibition led to an increased GFP expression
